Results as given in ChEMBL document CHEMBL2390850, “New azole antagonists with high affinity for the P2Y(1) receptor” (Bioorg Med Chem Lett, 2013).

What was measured:
[1] = Plasma protein binding in human; type: ADME, cell-free; conditions: read-out: PPB (converted)
[2] = Antiplatelet activity in human platelet-rich plasma assessed as inhibition of ADP-induced platelet aggregation; type: functional, cell-free
P2Y purinoceptor 1 = P2Y purinoceptor 1 (Homo sapiens, UniProt P47900); experiment: Displacement of [beta-33P]-2MeS-ADP from human P2Y1 receptor expressed in HEK293 cells after 1 hr by scintillation counting analysis; type: cell-based
Chain of P2Y purinoceptor 1 (P47900 whole entry): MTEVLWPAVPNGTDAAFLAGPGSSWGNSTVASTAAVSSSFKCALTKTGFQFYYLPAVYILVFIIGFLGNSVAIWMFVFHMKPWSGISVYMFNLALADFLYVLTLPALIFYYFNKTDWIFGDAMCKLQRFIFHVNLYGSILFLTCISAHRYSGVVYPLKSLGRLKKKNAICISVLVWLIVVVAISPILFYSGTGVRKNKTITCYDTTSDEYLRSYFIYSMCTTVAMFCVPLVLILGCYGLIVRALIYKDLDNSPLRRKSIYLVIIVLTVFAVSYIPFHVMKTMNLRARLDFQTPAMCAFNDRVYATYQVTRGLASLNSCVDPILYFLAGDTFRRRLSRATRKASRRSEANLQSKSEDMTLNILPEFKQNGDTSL

[3] = Solubility of the compound at pH 6.5; type: physicochemical; conditions: buffer
[4] = Lipophilicity, log P of the compound by HPLC analysis; type: physicochemical
[5] = Antiplatelet activity in human platelet-rich plasma assessed as inhibition of ADP-induced platelet aggregation relative to untreated control; type: functional

SMILES	Ki (P2Y purinoceptor 1) [nM]	also measured
CC(C)(C)c1ccccc1Oc1ncccc1NC(=O)Nc1ccc(OC(F)(F)F)cc1		fraction unbound [1]: 0.007
CC(C)(C)c1ccccc1Oc1ncccc1NC(=O)Nc1ccc(C(F)(F)F)cc1	15	IC50 [2]: 12600 nM
CC(C)(C)c1ccccc1Oc1ncccc1Nc1nnc(C(=O)O)s1	2900	
CCOC(=O)c1nnc(Nc2cccnc2Oc2ccccc2C(C)(C)C)s1	90	
Cn1nc(Nc2cccnc2Oc2ccccc2C(C)(C)C)cc1-c1ccccc1	45	
Cn1nc(-c2ccccc2)cc1Nc1cccnc1Oc1ccccc1C(C)(C)C	> 36000	
CC(C)(C)c1ccccc1Oc1ncccc1Nc1cc(-c2ccccc2)n[nH]1	870	
CC(C)(C)c1ccccc1Oc1ncccc1Nc1nncs1	2730	
CC(C)(C)c1ccccc1Oc1ncccc1Nc1nnc(-c2ccc(OC(F)(F)F)cc2)s1	10	
CC(C)(C)c1ccccc1Oc1ncccc1Nc1nnc(-c2ccc(C(F)(F)F)cc2)s1	7	IC50 [2]: 7500 nM; solubility [3]: < 1 µg/mL; logP [4]: 6
CN(C)c1ccc(-c2nnc(Nc3cccnc3Oc3ccccc3C(C)(C)C)s2)cc1	27	
CN(C)c1cccc(-c2nnc(Nc3cccnc3Oc3ccccc3C(C)(C)C)s2)c1	55	
CN(C)Cc1ccc(-c2nnc(Nc3cccnc3Oc3ccccc3C(C)(C)C)s2)cc1	250	
CN(C)Cc1cccc(-c2nnc(Nc3cccnc3Oc3ccccc3C(C)(C)C)s2)c1	670	
CC(C)(C)c1ccccc1Oc1ncccc1Nc1nnc(-c2ccc3ccccc3c2)s1	18	
CC(C)(C)c1ccccc1Oc1ncccc1Nc1nnc(-c2ccccn2)s1	21	
CC(C)(C)c1ccccc1Oc1ncccc1Nc1nnc(-c2cccnc2)s1	340	
CC(C)(C)c1ccccc1Oc1ncccc1Nc1nnc(-c2ccncc2)s1	275	IC50 [2]: 29000 nM
CC(C)(C)c1ccccc1Oc1ncccc1NC(=O)Nc1ccccc1	41	inhibition (INH) [5]: 95%
CC(C)(C)c1ccccc1Oc1ncccc1Nc1ncc(-c2ccccc2)s1	15	logP [4]: 5.98
CC(C)(C)c1ccccc1Oc1ncccc1Nc1ncc(-c2ccccc2)o1	59	
CC(C)(C)c1ccccc1Oc1ncccc1Nc1nnc(-c2ccccc2)s1	11	IC50 [2]: 13000 nM; logP [4]: 5.01
CC(C)(C)c1ccccc1Oc1ncccc1Nc1nc(-c2ccccc2)ns1	25	
CC(C)(C)c1ccccc1Oc1ncccc1Nc1nsc(-c2ccccc2)n1	1500	
CC(C)(C)c1ccccc1Oc1ncccc1Nc1nnc(-c2ccccc2)o1	70	
CC(C)(C)c1ccccc1Oc1ncccc1Nc1noc(-c2ccccc2)n1	410	
CC(C)(C)c1ccccc1Oc1ncccc1N=C1NCC(c2ccccc2)O1 (stereo not drawn)	2500	
CC(C)(C)c1ccccc1Oc1ncccc1Nc1cc(-c2ccccc2)on1	19	
CC(C)(C)c1ccccc1Oc1ncccc1Nc1cc(-c2ccccc2)no1	23	
